{
  "source": "patent US5688960A",
  "about": "“Substituted oximes, hydrazones and olefins useful as neurokinin antagonists” (Schering Corporation, priority 1996, dated 1997)",
  "key": {"[1]": {"biological_target": "T1, human neurokinin 2 (NK2) receptor (Homo sapiens, UniProt P21452)", "T1 construct": "expressed in transfected cells; host or cells: Chinese Hamster ovary (CHO) cells; membranes", "T1 sequence (P21452 1-398)": "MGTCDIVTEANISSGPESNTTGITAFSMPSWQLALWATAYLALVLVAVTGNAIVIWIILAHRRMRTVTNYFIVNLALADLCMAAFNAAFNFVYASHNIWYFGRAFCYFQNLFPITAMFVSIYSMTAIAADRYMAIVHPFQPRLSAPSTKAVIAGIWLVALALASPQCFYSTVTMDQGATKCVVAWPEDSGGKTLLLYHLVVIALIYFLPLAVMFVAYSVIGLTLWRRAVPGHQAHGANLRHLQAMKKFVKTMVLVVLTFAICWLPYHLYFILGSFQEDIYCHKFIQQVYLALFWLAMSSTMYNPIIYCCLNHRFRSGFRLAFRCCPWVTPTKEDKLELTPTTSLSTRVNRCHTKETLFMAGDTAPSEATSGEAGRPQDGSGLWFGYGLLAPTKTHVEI", "test": "Neurokinin receptor binding assay, [3H]-Neurokinin A competition, CHO cell membranes (NK2)", "details": "[3H]-Neurokinin A 1.0 nM", "description": "(§1) Chinese Hamster ovary (CHO) cells transfected with the coding regions for the human neurokinin 1 (NK1) of the human neurokinin 2 (NK2) receptors are grown in Dulbecco's minimal essential medium supplemented with 10% fetal calf serum, 0.1 mM non-essential amino acids, 2 mM glutamine, 100 units/ml of penicillin and streptomycin, and 0.8 mg of G418/ml at 37° C. in a humidified atmosphere containing 5% CO2.\n(§2) Cells are detached from T-175 flasks with a sterile solution containing 5 mM EDTA in phosphate buffered saline. Cells are harvested by centrifugation and washed in RPMI media at […] for 5 minutes. […]\n(§3) To assay receptor binding, 50 μl of [^3 H]-Substance P (9-Sar, 11-Met) (specific activity 41 Ci/mmol) (Dupont-NEN) (0.8 nM for the NK-1 assay) or [^3 H]-Neurokinin A (specific activity 114 Ci/mmole) (Zenca) (1.0 nM for the NK-2 assay) is added to tubes containing buffer (50 mM Tris-HCl (pH 7.4) with 1 mM MnCl2 and 0.2% Bovine Serum Albumin) and either DMSO or test compound. […] Filters are added to 6 mls of Ready-Safe liquid scintillation cocktail and quantified by liquid scintillation spectrometry in a LKB 1219 RackBeta counter. Non-specific binding is determined by the addition of either 1 μM of CP-99994 (NK-1) or 1 μM SR-48968 (NK-2) (both synthesized by the chemistry department of Schering-Plough Research Institute). […]"}, "[2]": {"biological_target": "T2, human neurokinin 1 (NK1) receptor (Homo sapiens, UniProt P25103)", "T2 construct": "expressed in transfected cells; host or cells: Chinese Hamster ovary (CHO) cells; membranes", "T2 sequence (P25103 whole entry)": "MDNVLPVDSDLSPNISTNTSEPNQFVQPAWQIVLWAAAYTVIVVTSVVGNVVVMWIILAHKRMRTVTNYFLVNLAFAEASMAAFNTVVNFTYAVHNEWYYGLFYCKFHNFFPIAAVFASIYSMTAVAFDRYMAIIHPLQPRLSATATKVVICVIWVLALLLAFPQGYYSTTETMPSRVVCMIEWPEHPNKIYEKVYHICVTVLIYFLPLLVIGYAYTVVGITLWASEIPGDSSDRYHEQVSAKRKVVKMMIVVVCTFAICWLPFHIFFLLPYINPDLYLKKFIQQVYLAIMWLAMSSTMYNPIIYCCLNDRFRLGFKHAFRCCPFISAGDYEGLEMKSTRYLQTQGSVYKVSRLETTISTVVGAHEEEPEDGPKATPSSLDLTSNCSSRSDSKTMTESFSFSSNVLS", "test": "Neurokinin receptor binding assay, [3H]-Substance P competition, CHO cell membranes (NK1)", "details": "[3H]-Substance P 0.8 nM", "description": "as §1, §2, §3"}},
  "data": [
    {"smiles": "CON=C(CN(C)C(=O)c1cc(C)cc(C)c1)C(CCN1CCC(O)(c2ccccc2)CC1)c1csc2ccccc12", "note": "(stereo not shown) [Example 7B]", "values": [
      {"measurement": "Ki", "setting": "[1]", "result": 4.5, "unit": "nM"},
      {"measurement": "Ki", "setting": "[2]", "result": 0.65, "unit": "nM"}
    ]},
    {"smiles": "OCCON=C(COCc1cc(C(F)(F)F)cc(C(F)(F)F)c1)C(CCN1CCC(O)(c2ccccc2)CC1)c1csc2ccccc12", "note": "(stereo not shown) [Example 4D]", "values": [
      {"measurement": "Ki", "setting": "[1]", "result": 23, "unit": "nM"},
      {"measurement": "Ki", "setting": "[2]", "result": 1.8, "unit": "nM"}
    ]}
  ]
}
